# Values joined by “and” are separate entries in the source; they are usually repeats but may differ in a detail not shown here. Equal values may be shown once.
# Target: Platelet-activating factor receptor (Homo sapiens, UniProt P25105)
# Sequence (P25105 whole entry): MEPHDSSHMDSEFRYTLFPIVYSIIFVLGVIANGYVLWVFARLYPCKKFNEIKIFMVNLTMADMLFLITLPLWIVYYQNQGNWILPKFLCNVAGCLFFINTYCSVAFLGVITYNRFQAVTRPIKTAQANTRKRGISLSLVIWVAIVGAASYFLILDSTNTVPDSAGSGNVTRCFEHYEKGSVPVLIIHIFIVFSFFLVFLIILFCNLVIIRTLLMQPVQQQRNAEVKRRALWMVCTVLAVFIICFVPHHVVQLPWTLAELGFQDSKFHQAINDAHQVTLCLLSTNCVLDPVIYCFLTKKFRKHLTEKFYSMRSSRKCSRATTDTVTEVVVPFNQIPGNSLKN
row,SMILES,Ki
1,CCCCCCCCCCCCCCCCCCNC(=O)OCC1CCC(COP(=O)([O-])OCC[n+]2cccc3ccccc32)O1 (centres undefined) [NSC_108044],129 nM and 130 nM
2,C[C@@H]1C(=O)O[C@H]2[C@H](O)C34[C@H]5C[C@@H](C(C)(C)C)C36C(O)C(=O)O[C@H]6O[C@@]4(C(=O)O5)[C@@]12O (some centres undefined) [BN 52021],964 nM and 643 nM
3,CCCCCCCCCCCCCCCCCCNC(=O)OCC(COCCCC[n+]1ccsc1)OC(=O)OC (centres undefined) [CAS_129364],38.6 nM and 16.9 nM
4,"Cc1nnc2n1-c1sc(Br)cc1C(c1ccccc1Cl)=NC2 [2-Bromo-4-(2-chloro-phenyl)-9-methyl-6H-1-thia-5,7,8,9a-tetraaza-cyclopenta[e]azulene]",80.5 nM and 17.4 nM

# Reference: BindingDB's records for PubMed 2156995 (Rhone-Poulenc Sante, 1990)
